What was measured:
[1] = tested on: human sdLDL; assay: Copper-induced sdLDL oxidation, TBARS after 2 hr (Example 6); format: biochemical; conditions: 10 μM CuSO4, vs vehicle
Procedure: Venous blood was collected from healthy volunteers into vacutainer tubes containing sodium EDTA. Plasma was separated by centrifugation at 3000 g for 25 min at 4° C. and adjusted to a density of 1.020 g/mL with KBr. Triglyceride-rich lipoproteins (TGRL) and LDL fractions were then isolated by sequential centrifugation at 70,000 rpm at 4° C. in a Beckman LE-80 ultracentrifuge using a Beckman 50.4Ti rotor (Beckman Coulter, Inc., Fullerton, Calif.). The TGRL fraction (with a relative density of <1.020) was aspirated from the top of the centrifugate and discarded, leaving an LDL-enriched infranate (with a relative density of 1.020 to 1.063). The plasma LDL fraction was further fractionated into LDL1, LDL2, LDL3, and LDL4 (sdLDL) subfractions with relative densities of 1.020 to 1.035, 1.035 to 1.050, 1.050 to 1.063, and 1.063 to 1.075, respectively. The sdLDL subfraction was retained for additional experimentation. Plasma and lipoprotein fractions were maintained at 4° C. and protected from excessive exposure to light. Prior to oxidation experiments, EDTA was removed from the lipoprotein fraction using PD-10 desalting columns (GE Healthcare, Piscataway N.J.). After equilibration of the column with phosphate buffered saline (PBS), 2.5 mL of the lipoprotein fraction was loaded on the column and the flow-through discarded. The lipoprotein was then eluted with 3 mL of PBS. The LDL fractions were further diluted with PBS to obtain a 100 μg/mL apoB100 concentration.
LDL and sdLDL subfractions (0.6 mL each) were incubated with either 10 μL vehicle (ethanol) or 10 μL drug stock solution for 30 min to 1 hr at 37° C. Oxidation was initiated by the addition of 10 μM CuSO4. After 2 hr, 100 μL aliquots were removed from each subfraction and combined with 1.0 mL thiobarbituric acid (0.5%), 10 μL trichloroacetic acid (5%), 10 μL BHT (5 mg/mL in methanol), and 10 μL EDTA (5 mM). […]. Sample TBARS concentrations were determined spectrophotometrically by measuring sample absorbances against a standard curve derived from the hydrolysis of 1,1,3,3-tetramethoxypropane.

[2] = tested on: HUVECs; assay: NO and ONOO^− release from HUVECs exposed to oxLDL, nanosensors (Example 8); format: cell-based, human; conditions: oxLDL 20 min, then agent 1 hour (EPA 10 μM, ATM 1.0 μM)
Procedure: Human umbilical vein endothelial cells (HUVECs) were isolated into primary cultures from female donors by Clonetics (San Diego, Calif.) and purchased as proliferating cells. All cell culture donors were healthy, with no pregnancy or prenatal complications. […] The confluent cells (4 to 5×10^5 cells/35 mm dish) were placed with minimum essential medium containing 3 mM L-arginine and 0.1 mM BH4 [(6R)-5,6,7,8-tetrahydrobiopterin]. Before experimental use, the cells (from second or third passage) were rinsed twice with Tyrode-HEPES buffer with 1.8 mM CaCl2.
The omega-3 fatty acids (O3FAs) cis-5,8,11,14,17-eicosapentaenoic acid (EPA) and docosahexaenoic acid (DHA) were purchased from Sigma-Aldrich (St. Louis, Mo.) and prepared initially at 11 mM in redistilled ethanol. Primary and secondary O3FA stock solutions were prepared and stored under argon at −20° C. […]
Oxidation was monitored by the use of measurements of TBARS. […] TBARS concentration was determined as malondialdehyde (MDA) equivalents with the use of an MDA standard curve. […]
The amperometric method (with a response time of 0.1 ms) provides a quantitative signal (current) that is directly proportional to changes (from basal levels) in NO or ONOO^− concentration. […] Basal NO or ONOO^− levels were measured by differential pulse voltammetry in separate experiments. […]

Structure (SMILES)	reduction of TBARS levels ([1]; 1.0 μM) [%]	reduction of TBARS levels ([1]; 10.0 μM) [%]	NO/ONOO^− Ratio [2]	NO release ([2]; unit printed in b302 only) [nM]
CC/C=C\C/C=C\C/C=C\C/C=C\C/C=C\CCCC(=O)O [EPA, cis-5,8,11,14,17-eicosapentaenoic acid]	13	57	–	–
O=C(O)c1cccnc1 [Niacin, nicotinic acid]	–	–	2.00 ± 0.52	431 ± 100

Reference: patent publication US11446269B2, “Methods of reducing or preventing oxidation of small dense LDL or membrane polyunsaturated fatty acids” (Amarin Pharmaceuticals Ireland Limited, priority 2014, dated 2022)
